For assay [1], the system named is Human osteoblasts (SaM-1). In words: Calcification of osteoblasts (Ca content of extracellular matrix, OCPC method). In kind it is cell-based. The following applies: DHNA 10^-7 M to 10^-5 M, 2 mM α-glycerophosphoric acid, culturing for 32 days, vs 0.1% DMSO control (FIG. 4). On the procedure:
Human osteoblasts (SaM-1), which had been cultured from long bone periosteum of a person obtained during fracture surgery, were employed. […] SaM-1 has been known to promote calcification in the presence of 2 mM of α-glycerophosphoric acid in a 1α, 25 (OH)2D3 concentration-dependent manner (Koshihara, Y. et al.: Biochem. Biophys. Res. commun., 145: 651-657, 1987).
The above-obtained SaM-1 cells of 18 PDL (population doubling level) were inoculated into a 12-well plate, and cultured until the cells reached a confluent state. Subsequently, α-glycerophosphoric acid, which is a calcification promoting agent, was added to the resultant culture broth such that the α-glycerophosphoric acid content became 2 mM. DHNA (10^−7 M to 10^−5 M) was added to the culture broth, followed by culturing for 32 days. For a control, DMSO (a solvent) was added to the culture broth such that the DMSO content became 0.1%. […]
The Ca content of extracellular matrix was quantified by use of a kit (Calcium C Test Wako) based on the o-cresolphthalein complexone method (OCPC method) (Gitleman, H. J.: Anal. Biochem., 18: 520-531, 1967).
After completion of culturing, the resultant cells were washed with a Hanks' solution. […] Thereafter, the resultant reaction mixture was subjected to measurement by use of an absorbance meter (570 nm) (FIG. 4).

For assay [2], the system named is ICR male mice. In words: Animal model with osteoporosis induced by FK-506. In kind it is in vivo. Particulars: DHNA 75 μg/kg orally every day, FK-506 1 mg/kg i.p. for 10 weeks, vs control group (FK 506 (+)) (FIG. 5). On the procedure: As has been known, administration of FK-506, which is known as an immunosuppressive agent, to an animal induces osteoporosis-like conditions (J. Hard Tissue Biology, 103-107, 10 (2), 2001). […] FK-506 (1 mg/kg) was intraperitoneally administered to ICR male mice (eight weeks old) for 10 consecutive weeks. During the 10-week FK-506 administration, a feed (CRF-1, product of Oriental Yeast Co., Ltd.) was arbitrarily ingested into the mice, and DHNA (75 μg/kg) which had been suspended in a 1% aqueous DMSO (dimethyl sulfoxide) solution was orally administered to each of the mice every day.

Data on one molecule can be found in patent publication US7834061B2, “Process for producing 1,4-dihydroxy-2-naphthoic acid” (Meiji Dairies Corporation, priority 2001, dated 2010).

The structures appear in SMILES notation.

Consider `O=C(O)c1cc(O)c2ccccc2c1O` [DHNA, 1,4-dihydroxy-2-naphthoic acid], for which the “degree of calcification (amount of Ca)” value in assay [1] was “promotes calcification in a concentration-dependent manner”. For the same molecule, the bone density entry in assay [2] is listed as “significantly higher than that of the mice in the control group”.
